In one assay the test system is AKT and ERK. The assay can be described thus: Western blot of signaling pathways, AKT and ERK activity. In kind it is cell-based. As to conditions: A375 melanoma cells. The protocol:
(§1) A375 melanoma cells (BRAF^V600E mutant) were purchased from the American Type Culture Collection (Manassas, Va.) and grown in RPMI or DMEM, in the presence of fetal bovine serum (10%), 2 mM L-glutamine and antibiotics (100 IU/ml penicillin and […] streptomycin) purchased from Sigma Aldrich. Cells were maintained at 37° C., 5% CO2 atmosphere.
(§2) Cells, treated with compound for 24 hr, were lysed in RIPA buffer (CST, Danvers, Mass., USA) on ice and clarified by centrifugation. Equal amounts of proteins were resolved by SDS-PAGE and immunoblotted with indicated antibodies. The antigen-antibody complex was visualized and quantitated using an Odyssey system (LI-COR, Lincoln, Nebr., USA).
(Immunoblotting shows a protein as a band on a membrane.)

For a further assay, the system named is 4EBP1. As to the kind of experiment: Western blot, 4EBP1 dephosphorylation. As to conditions: A375 melanoma cells. The assay is classed as cell-based. The protocol:
as §1, §2

Another assay concerns MEK. As to the kind of experiment: Western blot, feedback activation of MEK. In kind it is cell-based. As to conditions: melanoma cells, FIG. 5. The protocol: as §1, §2
Assay [1] has as its system androgen receptor, AKT, PARP. As to the kind of experiment: Western blot in LNCaP cells: androgen receptor, AKT, PARP cleavage. As to conditions: FIG. 2. In kind it is cell-based.
Text: as §2

The next assay has as its system B-raf. As to conditions: cited from earlier work.
Assay [2] concerns androgen receptor (AR), Akt. The assay can be described thus: Everolimus-induced AR expression and Akt activity, apoptosis (FIG. 1). In kind it is cell-based. The following applies: in combination with everolimus.
Text: as §2

Where two headings read alike, the source gives them in different places.

Take `Cn1c(=O)n(-c2ccc(C(C)(C)C#N)cc2)c2c3cc(-c4cnc5ccccc5c4)ccc3ncc21` [BEZ235, 2-methyl-2-[4-[3-methyl-2-oxo-8-(quinolin-3-yl)-2,3-dihydroimidazo[4,5-c]quinolin-1-yl]phenyl]propionitrile]: the “AKT and ERK activity” value in the assay with AKT and ERK was “enhanced the activity of AKT and ERK”. For the same compound, the “dephosphorylation of 4EBP1” value in the assay on 4EBP1 was “sufficient to dephosphorylate 4EBP1”. The “feedback activation of MEK” value in the assay on MEK is reported as “feedback activation of MEK observed”. In assay [1], the Akt deactivation entry is recorded as “able to deactivate Akt”.

Regarding `C=CCNC1=C2C[C@@H](C)C[C@H](OC)[C@H](O)[C@@H](C)/C=C(\C)[C@H](OC(N)=O)[C@@H](OC)/C=C\C=C(/C)C(=O)NC(=CC1=O)C2=O` [Compound 17AAG], the B-raf degradation entry is given as “B-raf was degraded more rapidly than in CHL cells” with B-raf (A375 (V600E) versus CHL cells (wild type B-raf)); “not sensitive to degradation” in the assay with B-raf (B-raf mutants E586K and L597V); “degraded more rapidly than wild type B-raf” in the assay with B-raf (B-raf mutants V600D, G469A, G469E, G596R, G466V, G594V in COS cells).

Turning to `CC(C)c1cc(-c2nnc(O)n2-c2ccc3c(ccn3C)c2)c(O)cc1O` [ganetespib, 3-(2,4-DIHYDROXY-5- ISOPROPYL-PHENYL)-4-(1- METHYL-INDOL-5-YL)-5- HYDROXY-[1,2,4] TRIAZOLE], in the assay on AKT and ERK, the “AKT and ERK activity” value was “effective in disrupting AKT and ERK activity”. In the assay with AKT and ERK (Western blot, FIG. 4), the “Inhibition of AKT” value was “blocked by lower concentrations of ganetespib compared to BEZ-235”. Also, the “dephosphorylation of 4EBP1” value with 4EBP1 was “could not completely dephosphorylate 4EBP1”. In assay [2], the apoptosis entry was “increased apoptosis”; the “everolimus-induced AR expression and Akt activity” value was “sufficient in blocking everolimus-induced AR expression and Akt activity”.
